Where a name gives a salt, the structure may show the parent alone. Read-outs that look alike come from different tables or passages of the source.
Key:
[1] = target: T1, human histamine-H3 receptor (Homo sapiens, UniProt Q9Y5N1); test: Histamine analogue-binding inhibition test; conditions: 50% inhibitory concentration to specific [3H]N-α-methylhistamine binding; membrane specimen of cells expressing histamine-H3 receptor; 25° C., 2 hours
T1 construct: expressed in transfected cells; host or cells: HEK293 and CHO-K1 (membrane specimen)
Text: A cDNA sequence coding for a human histamine-H3 receptor (see WO00/39164) was cloned with expression vectors pCR2.1, pEF1x (by Invitrogen) and pCI-neo (by Promega). The resulting expression vector was transfected into host cells, HEK293 and CHO-K1 (American Type Culture Collection), according to a cationic lipid process [see Proceedings of the National Academy of Sciences of the United States of America, Vol., 84, p. 7413 (1987)] to obtain histamine-H3 receptor expression cells.
A membrane specimen prepared from the cells having expressed a histamine-H3 receptor was incubated in an assay buffer (50 mM Tris buffer, pH 7.4) along with a test compound and 20,000 cpm [^3H]N-α-methylhistamine (by NEN) therein, at 25° C. for 2 hours, and then filtered through a glass filter GF/C. After washed with 50 mM Tris buffer (pH 7.4), the radioactivity on the glass filter was determined. The non-specific binding was determined in the presence of 10 μM thioperamide (by SIGAM), and the 50% inhibitory concentration (IC50) of the test compound to the specific N-alpha-methylhistamine binding was calculated [Molecular Pharmacology, Vol. 55, p. 1101 (1999)].

histamine-H3 receptor = target: T2, histamine-H3 receptor (Rattus norvegicus, UniProt Q9QYN8); test: Test for antagonistic effect to water-drinking action induced by histamine-H3 receptor selective agonist, R-α-methylhistamine; format: in vivo; conditions: male SD rat; 30 mg/kg orally 2 hours before R-α-methylhistamine; water drunk for 1 hour
T2 construct: from tissue; host or cells: living male SD rat (brain, third ventricle administration of the agonist)
Experimental: Under anesthesia with ketamine xylazine (74 and 11 mg/kg intraabdominal single administration), a brain stereotaxic device was set in the third ventricle of a male SD rat (7 to 10-week age, […]), and a chronic guide cannula (26 gauge, length 11 mm) was inserted into it and fixed with a dental resin. The position of the tip of the guide cannula is at 2.2 mm after the bregrna on the midline, and at a depth of 8 mm from the surface of the skull. After a restoration term of about 1 week, R-α-methylhistamine (0.3 μg/l μL/head, 30% propylene glycol liquid) was administered into the third ventricle. A test compound (compound of Example 3-8) suspended in an aqueous 0.5% methyl cellulose solution was orally administered to the rat before 2 hours before the R-α-methylhistamine administration; and after the R-α-methylhistamine administration, the amount of water drunk by the rat for 1 hour was measured.

[2] = Test for brain/cerebrospinal fluid transition; format: in vivo; conditions: SD male rat, 2 hours after the oral administration (10 mg/kg)
Text: A test compound (compound of Example 3-8) was orally or intravenously administered to an SD male rat (7 to 10-week age, 200 to 400 g), and under anesthesia with ether for a predetermined period of time, the whole blood was collected from it through the abdominal aorta thereof using a heparin-processed syringe. Next, the head skin was cut, and a dental 30 G needle was stuck into the cervical spine to run through the subarachnoid cavity. Via a tube connected to the dental 30 G needle, from 50 to 100 μl of the cerebrospinal fluid was collected in a 1-mL syringe, and then the brain was taken out. The blood sample was centrifuged (4° C., 6000 revolutions, 10 minutes), and the resulting plasma was stirred with ethanol (containing an internal standard substance) in an amount of three times thereof added to it. The brain sample was homogenized with 2 mL of water added thereto; and a part of it was taken out and stirred with ethanol (containing an internal standard substance) in an amount of three times thereof added to it. The cerebrospinal fluid was stirred with ethanol (containing an internal standard substance) in an amount of three times thereof added to it. The above samples were left at −20° C. for 20 minutes, then centrifuged (4° C., 12,000 g, 10 minutes), and the supernatant was analyzed through LC/MS/MS. According to a relative calibration curve method, the compound concentration in the plasma, in the brain and in the cerebrospinal fluid was determined. As a result, the test compound concentration in the brain was 0.99 nmol/g, that in the cerebrospinal fluid was 0.074 μM and that in the plasma was 0.6 μM, after 2 hours after the oral administration (10 mg/kg).

T1 sequence (Q9Y5N1 whole entry): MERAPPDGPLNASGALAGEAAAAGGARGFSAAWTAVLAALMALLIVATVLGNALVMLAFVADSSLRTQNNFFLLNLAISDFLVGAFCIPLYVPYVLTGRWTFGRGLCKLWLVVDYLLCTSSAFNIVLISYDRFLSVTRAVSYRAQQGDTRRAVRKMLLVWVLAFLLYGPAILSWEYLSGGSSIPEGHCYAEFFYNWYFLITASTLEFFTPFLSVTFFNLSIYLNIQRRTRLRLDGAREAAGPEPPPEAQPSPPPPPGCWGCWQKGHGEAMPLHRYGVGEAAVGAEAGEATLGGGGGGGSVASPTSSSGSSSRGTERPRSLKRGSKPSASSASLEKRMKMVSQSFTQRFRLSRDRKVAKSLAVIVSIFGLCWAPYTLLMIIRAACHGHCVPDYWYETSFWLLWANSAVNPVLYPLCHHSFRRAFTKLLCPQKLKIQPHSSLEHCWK
T2 sequence (Q9QYN8 whole entry): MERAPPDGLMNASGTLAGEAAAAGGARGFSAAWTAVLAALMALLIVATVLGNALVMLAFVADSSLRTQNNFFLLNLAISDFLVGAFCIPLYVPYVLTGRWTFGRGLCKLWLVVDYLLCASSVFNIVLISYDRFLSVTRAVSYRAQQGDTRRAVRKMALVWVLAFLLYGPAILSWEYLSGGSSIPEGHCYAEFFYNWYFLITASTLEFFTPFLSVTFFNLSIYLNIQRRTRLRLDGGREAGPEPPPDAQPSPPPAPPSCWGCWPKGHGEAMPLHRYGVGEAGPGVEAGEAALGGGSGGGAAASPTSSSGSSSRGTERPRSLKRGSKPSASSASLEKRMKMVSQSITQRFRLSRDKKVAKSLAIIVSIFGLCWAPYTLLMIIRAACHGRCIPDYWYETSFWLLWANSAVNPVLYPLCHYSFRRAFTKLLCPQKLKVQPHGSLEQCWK

Row | SMILES | IC50 [1] [nM] | further results
1 | COc1ccc(C2(O)CCN(c3ccc(OCCCN4CCCCC4)cc3)CC2)cc1 [Example 2-6, 4-(4-methoxyphenyl)-1-[4-(3-piperidin-1-ylpropoxy)phenyl]piperidin-4-ol trifluoroacetate] | 3 | –
2 | O=C1COC2(CCN(c3ccc(OCCCN4CCCCC4)cc3)CC2)CN1c1ccccc1 [Example 3-8, 4-phenyl-9-[4-(3-piperidin-1-ylpropoxy)phenyl]-1-oxa-4,9-diazaspiro[5,5]undecan-3-one] | 4.2 | increase in the water drinking induced by the administration of R-α-methylhistamine in the third ventricle (histamine-H3 receptor): significantly inhibited; test compound concentration in the brain [2]: 0.99 nmol/g; concentration at 2 h ([2]; cerebrospinal fluid, read-out: test compound concentration in the cerebrospinal fluid): 74 nM; concentration at 2 h ([2]; plasma, read-out: test compound concentration in the plasma): 600 nM
3 | COc1ncc(N2CC3(CCN(c4ccc(OCCCN5CCCCC5)cc4)CC3)OCC2=O)cn1 [Example 3-15, 4-(2-methoxypyrimidin-5-yl)-9-[4-(3-piperidin-1-ylpropoxy)phenyl]-1-oxa-4,9-diazaspiro[5,5]undecan-3-one] | 0.22 | –
4 | O=C1OC2(CCN(c3ccc(OCCCN4CCCCC4)cc3)CC2)CN1c1ccncc1 [Example 3-42, 8-[4-(3-piperidin-1-ylpropoxy)phenyl]-3-(pyridin-4-yl)-1-oxa-3,8-diazaspiro[4,5]decan-2-one] | 0.94 | –
5 | C[C@@H]1CCCN1CCCOc1ccc(N2CCC3(CC2)CN(c2ccc(S(C)(=O)=O)cc2)C(=O)CO3)cc1 [Example 3-79, 9-(4-{3-[(2R)-2-methylpyrrolidin-1-yl]propoxy}phenyl)-4-[4-(methylsulfonyl)phenyl]-1-oxa-4,9-diazaspiro[5,5]undecan-3-one] | 0.19 | –
6 | C[C@H]1CCCN1CCCOc1ccc(N2CCC3(CC2)CN(c2cnn(C)c2)C(=O)CO3)cc1 [Example 3-95, 4-(1-methyl-1H-pyrazol-4-yl)-9-(4-{3-[(2S)-2-methylpyrrolidin-1-yl]propoxy}phenyl)-1-oxa-4,9-diazaspiro[5,5]undecan-3-one] | 1.2 | –
7 | CCN1CC2(CCN(c3ccc(OCCCN4CCC[C@H]4C)cc3)CC2)OC1=O [Example 3-96, 3-ethyl-8-(4-{3-[(2R)-2-methylpyrrolidin-1-yl]propoxy}phenyl)-1-oxa-3,8-diazaspiro[4,5]decan-2-one] | 0.41 | –
8 | COc1ccc(N2CC3(CCN(c4ccc(OC5CCN(C6CCC6)CC5)cc4)CC3)OCC2=O)cc1 [Example 3-107, 9-{4-[(1-cyclobutylpiperidin-4-yl)oxy]phenyl}-4-(4-methoxyphenyl)-1-oxa-4,9-diazaspiro[5,5]undecan-3-one] | 0.18 | –
9 | CC(C)N1CCC(Oc2ccc(N3CCC4(CC3)CN(c3cnccn3)C(=O)CO4)cc2)CC1 [Example 3-138, 9-{4-[(1-isopropylpiperidin-4-yl)oxy]phenyl}-4-pyrazin-2-yl-1-oxa-4,9-diazaspiro[5,5]undecan-3-one] | 1.08 | –
10 | O=C1COC2(CCN(c3ccc(OC4CCN(C5CCC5)CC4)nc3)CC2)CN1c1cccnc1 [Example 3-150, 9-{6-[(1-cyclobutylpiperidin-4-yl)oxy]pyridin-3-yl}-4-pyridin-3-yl-1-oxa-4,9-diazaspiro[5,5]undecan-3-one] | 0.66 | –
11 | COc1ccc(N2CC3(CCN(c4ccc(OC5CCN(C6CCC6)CC5)cc4)CC3)OC2=O)cn1 [Example 3-168, 8-{4-[(1-cyclobutylpiperidin-4-yl)oxy]phenyl}-3-(6-methoxypyridin-3-yl)-1-oxa-3,8-diazaspiro[4,5]decan-2-one] | 0.09 | –
12 | C[C@H]1CCCN(CCCOc2ccc(N3CCC4(CC3)CN(C3CCCC3)C(=O)CO4)cc2)C1 [Example 4-17, 4-cyclopentyl-9-(4-{3-[(3S)-3-methylpiperidin-1-yl]propoxy}phenyl)-1-oxa-4,9-diazaspiro[5,5]undecan-3-one] | 1.2 | –

Source: US8138206B2, “Piperidine derivative” (MSD. K.K., priority 2005, dated 2012)
